Laboratory results reported in PubChem BioAssay (NCI).
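These data come from cells grown in 96-well plates and exposed to compound for 48 hours at five concentrations. The concentration for 50% growth inhibition is given as GI50. At the TGI there is no net growth.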

Columns and labels:
Test in all cases: NCI-60 cell line screen, 48 h
[1] = system: LOX IMVI melanoma
[2] = system: UACC-257 melanoma
[3] = system: ACHN renal
[4] = system: NCI-H460 lung
[5] = system: UO-31 renal
[6] = system: IGROV1 ovarian
[7] = system: SK-MEL-5 melanoma
[8] = system: U251 CNS
[9] = system: HCT-15 colon
[10] = system: NCI/ADR-RES ovarian

| Compound | TGI [1] [µM] | TGI [2] [µM] | TGI [3] [µM] | TGI [4] [µM] | TGI [5] [µM] | TGI [6] [µM] | TGI [7] [µM] | TGI [8] [µM] | TGI [9] [µM] | GI50 [1] [nM] | GI50 [10] [nM] | TGI [10] [µM] | GI50 [3] [nM] | GI50 [4] [nM] | GI50 [6] [nM] | GI50 [7] [nM] | GI50 [8] [nM] | GI50 [9] [nM] | GI50 [5] [nM] | GI50 [2] [µM] |
| --- | --- | --- | --- | --- | --- | --- | --- | --- | --- | --- | --- | --- | --- | --- | --- | --- | --- | --- | --- | --- |
| NS(=O)(=O)c1ccc(NC(=O)c2cccc3c(=O)c4ccccc4[nH]c23)cc1 | > 100 | > 100 | > 100 | > 100 | 67.8 | > 100 | > 100 | > 100 | > 100 | – | – | – | – | – | – | – | – | – | – | – |
| Cc1ccc(-c2nc(C(Cl)Cl)n3nc(-c4ccccc4)cc3n2)cc1 | > 100 | – | 0.93 | 1.05 | – | > 100 | > 100 | 1.53 | 1.12 | > 100000 | 476 | 3.76 | 302 | 273 | 711 | > 100000 | 322 | 313 | – | – |
| CC(C)(C)C1(O)Cc2ccccc2C(=O)O1 (stereo not given) | > 100 | > 100 | > 100 | > 100 | > 100 | > 100 | > 100 | > 100 | > 100 | – | – | – | – | – | – | – | – | – | – | – |
| CCOC(=O)[C@@H](C)C[C@H](Cc1ccccc1)NC(=O)c1csc([C@@H](C[C@H](C(C)C)N(C)C(=O)[C@@H](NC(=O)[C@H]2CCCCN2C)C(C)(C)C)OC(C)=O)n1 | > 16.7 | – | > 16.7 | > 5.37 | > 10.8 | > 16.7 | 0.00254 | > 16.7 | > 16.7 | < 1.67 | 5.42 | – | < 1.67 | < 1.67 | < 1.67 | < 1.67 | < 1.67 | < 1.67 | 2.97 | – |
| CCCS(=O)(=O)c1nc(NC2CC2)cc(-c2ccc3c(ccn3C3CC(C)(C)NC(C)(C)C3)c2)n1 | 3.17 | – | 3.35 | 3.55 | 3.16 | 3.81 | 3.15 | – | 3.12 | 1670 | 2000 | 4.46 | 1770 | 1800 | 1970 | 1720 | – | 1570 | 1600 | – |
| N#Cc1c(N)c(C(=O)O)nn(-c2cccc(C(F)(F)F)c2)c1=O | > 100 | – | > 100 | > 100 | > 100 | > 100 | > 100 | > 100 | > 100 | – | – | – | – | – | – | – | – | – | – | – |
| Oc1c2c(c(O)c3ccccc13)=N[C@@H](c1ccccc1)[C@H](c1ccccc1)N=2 | > 100 | > 100 | > 100 | > 100 | > 100 | > 100 | > 100 | > 100 | > 100 | – | – | – | – | – | – | – | – | – | – | – |
| CN(C)c1nc(-c2cccs2)n2nc(-c3ccc(Cl)cc3)cc2n1 | > 100 | – | > 100 | – | – | > 100 | – | – | > 100 | 3580 | – | – | 3970 | – | 5280 | – | – | > 100000 | – | – |
| Cc1c(C(=O)NN)nnn1-c1ccnc2c(C(F)(F)F)cccc12 | > 100 | > 100 | > 100 | > 100 | > 100 | > 100 | > 100 | – | > 100 | > 100000 | > 100000 | > 100 | > 100000 | > 100000 | > 100000 | > 100000 | – | > 100000 | > 100000 | > 100 |
| CCOc1cccc2nc3cccc(C(=O)NCCN(C)C)c3nc12 | 2.11 | 6.45 | 3.01 | – | > 100 | – | – | 9.26 | 7.47 | – | – | – | – | – | – | – | – | – | – | – |
| c1ccc2c(c1)N=C(c1cccc3ccccc13)CC(c1cccc3ccccc13)S2 (stereo not given) | 11.4 | 31.8 | 23.5 | 19.5 | 23.6 | 19.7 | 22.1 | 6.08 | 22.5 | – | – | – | – | – | – | – | – | – | – | – |
| COC(=O)NC/C=C\c1nc(CC/C=C\C(=O)OC2CC3CC(=O)O[C@@H](/C=C/CC(C)C)C[C@@H]4CCC(C)C(C[C@@H](OC)CC(C2)O3)O4)co1 (stereo not given in full) | 61.9 | > 100 | > 100 | > 100 | 74.7 | – | 19 | 72.4 | 20.7 | 91 | 38300 | > 100 | < 10 | < 10 | – | < 10 | < 10 | < 10 | 2460 | > 100 |
| CN(C)C(=S)/N=c1\ss/c(=N\S(=O)(=O)c2ccccc2)n1-c1ccccc1 | > 100 | > 100 | > 100 | – | > 100 | > 100 | 78.3 | > 100 | > 100 | – | – | – | – | – | – | – | – | – | – | – |
| COc1ccc(C(=O)C(C(=O)CCC(=O)Nc2cccc(C(F)(F)F)c2)c2ccccc2)cc1 (stereo not given) | – | > 100 | > 100 | > 100 | > 100 | > 100 | > 100 | > 100 | > 100 | – | – | – | – | – | – | – | – | – | – | – |
| COc1ccc(C2=NC(C)(C)CO2)cc1 | > 100 | > 100 | > 100 | > 100 | – | > 100 | > 100 | > 100 | > 100 | – | – | – | – | – | – | – | – | – | – | – |
| COc1ccc(-c2cc(-c3cc(Cl)ccc3Cl)nc3nc(=S)[nH]c(N)c23)cc1 | 44.4 | – | 98.4 | > 100 | > 100 | > 100 | 94.6 | 72.1 | > 100 | 14200 | 20100 | 45.2 | 27100 | 47600 | 9340 | 18200 | 22100 | 17500 | 58100 | – |
| Oc1c(Br)cc(CN(Cc2cc(Br)c(O)c(Br)c2)C2CCCCC2)cc1Br | > 100 | > 100 | > 100 | – | > 100 | > 100 | > 100 | > 100 | > 100 | – | – | > 100 | – | – | – | – | – | – | – | – |
| c1cc[c]([Sn]([S]c2cccc3cccnc23)([c]2ccccc2)[c]2ccccc2)cc1 | 0.0304 | – | 0.116 | 0.033 | 0.145 | 0.351 | 0.277 | 0.11 | 0.0467 | 15.9 | – | – | 33.5 | 14.3 | 94.3 | 42 | 34.7 | 19.6 | 51.1 | – |
